Literature values in PMC12030253, “New Temporin A Analogues Modified in Positions 1 and 10—Synthesis and Biological Studies” (Pharmaceutics, 2025).
Where two headings read alike, the source gives them in different places. Ends that are not written are not given here.

Assays:
Set-up in all cases: method as in PMID 38931840
[1] = system: Pseudomonas aeruginosa NBIMCC 3700; conditions: broth dilution, 0-320 µg/mL, 24 h; cited from earlier work
[2] = system: Escherichia coli NBIMCC 8785; conditions: 20 µL per disk, cited from earlier work
[3] = system: Arthrobacter oxydans NBIMCC 9333; conditions: broth dilution, 0-320 µg/mL, 24 h; cited from earlier work
[4] = system: Candida albicans NBIMCC 74; conditions: broth dilution, 0-320 µg/mL, 24 h; cited from earlier work
[5] = system: Bacillus subtilis NBIMCC 3562; conditions: broth dilution, 0-320 µg/mL, 24 h; cited from earlier work
[6] = system: Pseudomonas aeruginosa NBIMCC 3700; conditions: cited from earlier work; for Percentage-based inhibition compared to antibiotic, P. aeruginosa 3700: gentamicin taken as 100%; for Inhibition zone P. aeruginosa 3700: 20 µL per disk
[7] = system: Bacillus subtilis NBIMCC 3562; conditions: cited from earlier work; for Percentage-based inhibition compared to antibiotic, B. subtilis 3562: chloramphenicol taken as 100%; for Inhibition zone B. subtilis 3562: 20 µL per disk
[8] = system: BALB 3T3 cells; conditions: cited from earlier work; for CC50: BALB 3T3 cells, NRU
[9] = system: Arthrobacter oxydans NBIMCC 9333; conditions: cited from earlier work; for Percentage-based inhibition compared to antibiotic, A. oxydans 9333: gentamicin taken as 100%; for Inhibition zone A. oxydans 9333: 20 µL per disk
[10] = system: MDA-MB-231 cells; conditions: cited from earlier work
[11] = system: MCF-12F cells; conditions: MTT, 72 h, non-tumorigenic cells; read-out: Mean IC50 ± SD MCF-12F; cited from earlier work
[12] = system: MCF-7 cells; conditions: cited from earlier work
[13] = system: Escherichia coli NBIMCC 8785; conditions: broth dilution, 0-320 µg/mL, 24 h; cited from earlier work

FLPLIGRVL-S-GILNH2 (FLPLIGRVLSGIL-NH2) [DTA, parent peptide Temporin A, C-terminal amide]
MIC P. aeruginosa 3700 [1]: 320 µg/mL
Inhibition zone E. coli 8785 ([2]; peptide 1.4 mg/mL): 0 mm
Inhibition zone E. coli 8785 ([2]; peptide 10 mg/mL): 0 mm
MIC A. oxydans 9333 [3]: 80 µg/mL
MIC C. albicans 74 [4]: 320 µg/mL
MIC B. subtilis 3562 [5]: 80 µg/mL
Percentage-based inhibition compared to antibiotic, P. aeruginosa 3700 ([6]; 1.4 mg/mL): 45.9%
Percentage-based inhibition compared to antibiotic, P. aeruginosa 3700 ([6]; 10 mg/mL): 54.7%
Inhibition zone P. aeruginosa 3700 ([6]; peptide 1.4 mg/mL): 7.8 ± 0.3 mm
Inhibition zone P. aeruginosa 3700 ([6]; peptide 10 mg/mL): 9.3 ± 0.6 mm
Percentage-based inhibition compared to antibiotic, B. subtilis 3562 ([7]; 1.4 mg/mL): 33.8%
Percentage-based inhibition compared to antibiotic, B. subtilis 3562 ([7]; 10 mg/mL): 33.8%
Inhibition zone B. subtilis 3562 ([7]; peptide 1.4 mg/mL): 8.8 ± 0.3 mm
Inhibition zone B. subtilis 3562 ([7]; peptide 10 mg/mL): 8.8 ± 0.8 mm
CC50 ([8]; irradiated 2.4 J/cm^2, read-out: Mean CC50 ± SD +Irr): 105 ± 4.88 µM
CC50 ([8]; without irradiation, read-out: Mean CC50 ± SD −Irr): 106 ± 4.18 µM
PIF (Photo-Irritation Factor) ([8]; PIF < 2 not phototoxic): 1.01
Percentage-based inhibition compared to antibiotic, A. oxydans 9333 ([9]; 1.4 mg/mL): 37.8%
Percentage-based inhibition compared to antibiotic, A. oxydans 9333 ([9]; 10 mg/mL): 53.9%
Inhibition zone A. oxydans 9333 ([9]; peptide 1.4 mg/mL): 6.8 ± 0.3 mm
Inhibition zone A. oxydans 9333 ([9]; peptide 10 mg/mL): 9.7 ± 0.6 mm
IC50 ([10]; MTT, 72 h, read-out: Mean IC50 ± SD MDA-MB-231): 115 ± 4.04 µM
Selectivity Index (SI) MDA-MB-231 ([10]; SI = IC50 (MCF-12F)/IC50 (MDA-MB-231)): 1.20
IC50 [11]: 139 ± 8.36 µM
IC50 ([12]; MTT, 72 h, read-out: Mean IC50 ± SD MCF-7): 73.2 ± 3.36 µM
Selectivity Index (SI) MCF-7 ([12]; SI = IC50 (MCF-12F)/IC50 (MCF-7)): 1.90
MIC E. coli 8785 [13]: 320 µg/mL
